In BindingDB's records for patent US20240173440 (Nuclidium, 2024):

Target: T1, Prolyl endopeptidase FAP (Homo sapiens, UniProt Q12884)
T1 sequence (Q12884 whole entry): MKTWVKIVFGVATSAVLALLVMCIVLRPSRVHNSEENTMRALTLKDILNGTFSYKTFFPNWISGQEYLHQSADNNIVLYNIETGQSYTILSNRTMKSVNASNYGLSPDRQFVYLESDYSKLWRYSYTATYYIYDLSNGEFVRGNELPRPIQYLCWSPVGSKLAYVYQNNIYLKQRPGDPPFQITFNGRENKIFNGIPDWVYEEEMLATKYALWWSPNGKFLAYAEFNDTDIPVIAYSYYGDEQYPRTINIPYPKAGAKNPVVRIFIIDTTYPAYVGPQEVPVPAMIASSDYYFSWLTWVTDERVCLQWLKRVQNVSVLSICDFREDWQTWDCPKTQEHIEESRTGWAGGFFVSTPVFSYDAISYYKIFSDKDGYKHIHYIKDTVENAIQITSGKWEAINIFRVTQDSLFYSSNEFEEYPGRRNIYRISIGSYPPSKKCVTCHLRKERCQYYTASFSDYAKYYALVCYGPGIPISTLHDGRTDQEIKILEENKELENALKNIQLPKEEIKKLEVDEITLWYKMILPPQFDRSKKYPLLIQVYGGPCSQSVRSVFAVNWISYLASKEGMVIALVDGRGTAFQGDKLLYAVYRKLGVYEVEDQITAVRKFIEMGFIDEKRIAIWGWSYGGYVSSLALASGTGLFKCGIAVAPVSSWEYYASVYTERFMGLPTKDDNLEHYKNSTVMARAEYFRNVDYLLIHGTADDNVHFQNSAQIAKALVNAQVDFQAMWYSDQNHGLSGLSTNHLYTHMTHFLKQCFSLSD
Assay: In Vitro hFAP Inhibition Assay
Method: FAPI-46 was used as positive control. Experiments were performed in triplicate, and the mean fluorescence values were fitted using Graph Pad Prism 9 (equation used: Y=Bottom+(Top−Bottom)/(1+((X^HillSlope)/(IC50^HillSlope)))).

IC50 [nM]	SMILES
0.04	N#C[C@@H]1CC(F)(F)CN1C(=O)CNC(=O)c1ccnc2ccc(NC(=O)CCC(=O)N3CCN(C(=O)CCC(C(=O)O)[N+]45CC[N+]67CC[N+]8(CC4)CC(=O)[O][Cu]685[O]C(=O)C7)CC3)cc12 (some centres not stated) [US20240173440, Compound [natCu]Cu-NODAGA-F3]
0.12	CN(C(=O)CCC(=O)NCCNC(=O)CCC(C(=O)O)[N+]12CC[N+]34CC[N+]5(CC1)CC(=O)[O][Cu]352[O]C(=O)C4)c1ccc2nccc(C(=O)NCC(=O)N3CC(F)(F)C[C@H]3C#N)c2c1 (some centres not stated) [US20240173440, Compound [natCu]Cu-NODAGA-F2]
